In US12617752B2, “Rapidly metabolized lipid compound” (Beijing Jitai Life Sciences Ltd, priority 2023, dated 2026):

Tests used:
C57BL/6 mice = assay: In vivo delivery of luciferase mRNA lipid nanoparticles in mice (bioluminescence imaging); conditions: intravenous, single dose 0.5 mg/kg luciferase mRNA
Outline: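 Female C57BL/6 mice, 6-8 weeks old, received luciferase mRNA lipid nanoparticles as a single intravenous dose of 0.5 mg/kg mRNA. At 6 h, D-luciferin given intraperitoneally; 10 min later, mice were imaged under isoflurane anaesthesia. Values are group mean fluorescence intensity and total photon count.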

[1] = Encapsulation efficiency of lipid nanoparticles (Quant-it RiboGreen RNA Assay); assay type: physicochemical; conditions: lipid nanoparticles with luciferase mRNA
Outline: (§1)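 LNPs of ionizable lipid/cholesterol/phospholipid/PEG-lipid (50/38.5/10/1.5 mol%, N/P 6) were formed by microfluidic mixing with mRNA in pH 4.5 acetate, then buffer-exchanged by ultrafiltration. Size and PDI were measured by DLS. Encapsulation came from RiboGreen fluorescence (485/528 nm) in TE pH 7.5, with and without 0.5% Triton at 37 °C for 30 min.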

HEK293T cells [2] = assay: Cytotoxicity testing with CCK-8 reagent; assay type: cell-based, human; conditions: CCK-8, 24 h, relative to PBS negative control
Protocol: (§2) The delivery effect and safety of nanoparticles encapsulated with luciferase mRNA were evaluated at the cellular level in vitro. The cells used in the assay were human embryonic kidney cells 293 (HEK293T cells) cultured in DMEM (Dulbecco's Modified Eagle Medium) (purchased from Thermo Fisher) containing 10% fetal bovine serum and 5% penicillin-streptomycin double antibiotics at a indoor temperature of 37° C. and a CO2 concentration of 5%. The cells were uniformly dispersed and spread in 48-well plates, and incubated in the incubator for 24 h. Then a solution of the lipid nanoparticles encapsulated with luciferase mRNA were added. After 24 h, the cells were lysed, and the intracellular expression intensity and relative light units (RLU) of luciferase in each type of lipid nanoparticles were measured with a luciferase detection reagent (purchased from Promega). The higher the intensity of expression, the higher the delivery efficiency of the lipid material at the cellular level. […] The absorbance values were read on a multifunctional microplate reader at an absorbance band of 450 nm. The ratio of the absorbance value of the nanoparticle-treated cells to that of the negative control was used as a characterization parameter for cell viability.

HEK293T cells [3] = assay: In vitro delivery efficiency of luciferase mRNA nanoparticles (luciferase expression); assay type: cell-based, human; conditions: 24 h
Protocol: as §2

[4] = Particle size and PDI of lipid nanoparticles by dynamic light scattering; assay type: physicochemical; conditions: lipid nanoparticles with luciferase mRNA; ionizable lipid/cholesterol/DSPC/DMG-PEG2000 50/38.5/10/1.5 mol%
Outline: as §1

[5] = Clearance rate of ionizable lipids in vivo (liver content by LC-MS/MS); conditions: C57 WT female mice, tail vein, 100 μL unloaded LNP (0.1 mg/mL)
Protocol: The 6-8 weeks old C57 WT female mice (n=3) were injected by tail vein administration of 100 μL of unloaded LNP (0.1 mg/mL) formed from the ionizable lipid, cholesterol, DSPC, and DMG-PEG 2000 at a ratio of 50:38.5:10:1.5. The experimental animals were executed by removing the cervical vertebrae and dissected for the liver at 24 h and 72 h after administration, respectively, while the same batch of non-dosed experimental animal livers were used as a blank control group. Water was added to the liver sample for homogenization, and the protein was precipitated. The content of the ionizable lipid in the sample was quantitatively analyzed using LC-MS/MS in comparison to a calibration standard prepared from matched blank liver tissues.

SMILES | Total photon count in vivo at 6 hours after administration (Total Flux) (C57BL/6 mice) | Encapsulation efficiency (%) [1] | Cell viability (%) (HEK293T cells [2]) | Luciferase luminescence of cell lysate (HEK293T cells [3]) | Particle size (nm) [4] | Particle-size distribution (PDI) [4] | Percentage of cationic lipids in the liver in the total dose, 24 h after administration (%) [5] | Percentage of cationic lipids in the liver in the total dose, 72 h after administration (%) [5]
CCCCCCCCCOC(=O)CCCCCCCN(CCO)CCCCC(C)(C)CCC(=O)OC(CCCCCCCC)CCCCCCCC [20a] | 1.18E+11 | 87.83% | 105.11% | 6.55E+06 RLU | 102.13 nm | 0.032 |  | 
CCCCCCCCCCC(=O)OCC(C)(C)CCCCCN(CCCCCCCC(=O)OC(CCCCCCCCC)CCCCCCCCC)C(=O)SCCCN(C)C [39b] | 7.16E+10 | 93.58% |  |  | 102.67 nm | 0.07 | <1% | <1%
CCCCC#CCCCOC(=O)CCCCCCCN(CCO)CCCCCCC(C)(C)C(=O)OC(CCCCCCCC)CCCCCCCC [56a] | 3.23E+10 | 82.84% |  |  | 86.37 nm | 0.09 | <1% | <1%
CCCCC/C=C\C/C=C\CCCCCCCCC(CCCCCCCC/C=C\C/C=C\CCCCC)OC(=O)CCCN(C)C [MC3, DLin-MC3-DMA, reference compound] | 8.04E+09 | 95.62% | 97.84% | 2.95E+06 RLU | 96.83 nm | 0.04 |  | 
